Measured values published in US20250339409A1, “USES OF PAN BET INHIBITORS” (VYNE THERAPEUTICS INC., priority 2021, published 2025).
Several values for one entry are separate records, joined by “and”; a condition that tells them apart may be missing. Equal entries are not always repeated.

System: bleomycin induced pulmonary fibrosis
Experiment: Bleomycin induced pulmonary fibrosis in mice, nebulized treatment: body weight, weight of whole lung, survival
Assay type: in vivo
Settings: for Predicted (LS) mean diff., % Change Body Weight, Group 2 Bleo/Veh vs. BETi1 group: Two Way ANOVA; for Predicted (LS) mean diff., % Change Body Weight, Group 2 Bleo/Veh vs. BETi1 group / Mean Diff., Weight of Whole lung, Group 2 Bleo/Veh vs. BETi1 group / Mean Diff., % Change Body Weight, Group 2 Bleo/Veh vs. BETi1 group: Dunnett's; for Mean Diff., Weight of Whole lung, Group 2 Bleo/Veh vs. BETi1 group / Mean Diff., % Change Body Weight, Group 2 Bleo/Veh vs. BETi1 group: One Way ANOVA; for % change in Body Weight Week 1 Compared to Baseline, mean / % change in Body Weight week 2 Compared to Baseline, mean / % change in Body Weight week 3 Compared to Baseline, Mean: group mean; for % change in Body Weight Week 1 Compared to Baseline / % change in Body Weight week 2 Compared to Baseline / % change in Body Weight week 3 Compared to Baseline: individual animals
Protocol: Bleomycin, a […], which acts inter alia by induction of DNA strand breaks.
The Bleomycin induced pulmonary fibrosis in a murine model is used to assess anti-fibrotic and/or anti-inflammatory properties of BETi1 formulations at three concentrations. Fifty C57BL/6 male mice aged 6 to 7 weeks and weighing between 25-30 grams are randomized into five treatment groups (10 mice each): (a) bleomycin induced mice treated with BETi1 at three concentrations (0.06 mg/mL, 0.6 mg/mL and 3 mg/mL); (b) bleomycin induced mice treated with vehicle (control for active) and (c) uninduced mice treated with vehicle (sham) (control for disease).
To generate the morphological and functional aspects of PF, 50 uL bleomycin sulfate in saline per mouse is intranasally dosed on Day 0 (other than for group 1 sham receiving saline). The bleomycin IU conversion to enzyme units (U) is approximately 2 U/mg. For delivery of 4 U/kg in 50 μL, a solution of 2 U/ml (for 25 g mouse) is prepared in 0.9% NaCl.
5 ml of BETi1 solutions at 3 doses, or vehicle and bleomycin concomitantly are delivered once daily for 21 days with a nebulizer based aerosol delivery system (eFlow® rapid Nebuliser System) by inhalation for a period which allows the solutions to be nebulized and up to 2 hours per day. A sham group receives vehicle only. Body weights are recorded on days 1, 7, 14, and 21. Mortality and clinical observations are recorded daily.
On day 21, mice are euthanized by cervical dislocation and the whole lung is dissected and weighed. The chest is wet with alcohol and large scissors are used to open the ribcage. The lungs are removed with fine scissors and forceps, rinsed with PBS and patted dry on gauze.
Investigation of the anti-fibrotic properties of BETi1 composition against TGF-β mediated fibrosis was undertaken in a bleomycin induced murine model mimicking IPF in accordance with the protocol set out in Experimental Method R.

[1] = Week 1, Group 3 Bleo/BETi1 0.06 mg/mL
[2] = Week 1, Group 4 Bleo/BETi1 0.6 mg/mL
[3] = Week 1, Group 5 Bleo/BETi1 3 mg/mL
[4] = Week 2, Group 3 Bleo/BETi1 0.06 mg/mL
[5] = Week 2, Group 4 Bleo/BETi1 0.6 mg/mL
[6] = Week 2, Group 5 Bleo/BETi1 3 mg/mL
[7] = Week 3, Group 3 Bleo/BETi1 0.06 mg/mL
[8] = Week 3, Group 4 Bleo/BETi1 0.6 mg/mL
[9] = Week 3, Group 5 Bleo/BETi1 3 mg/mL

What does the source list for `Cn1cc(-c2cccc(O)c2Oc2ccccc2)c2cc[nH]c2c1=O` [BETi1]?
whole lung weight (0.06 mg/mL and 0.6 mg/mL, vs bleomycin and vehicle): slight decrease in lung weight; Probability of Survival (0.06 mg/mL inhaled, until day 20): 50%; Probability of Survival (0.6 mg/mL inhaled, until day 20): 81.3%; Probability of Survival (3 mg/mL inhaled, until day 20): 76.5%; Predicted (LS) mean diff., % Change Body Weight, Group 2 Bleo/Veh vs. BETi1 group (Baseline, Group 3 Bleo/BETi1 0.06 mg/mL): 0.0875%; Predicted (LS) mean diff., % Change Body Weight, Group 2 Bleo/Veh vs. BETi1 group (Baseline, Group 4 Bleo/BETi1 0.6 mg/mL): 0.1750%; Predicted (LS) mean diff., % Change Body Weight, Group 2 Bleo/Veh vs. BETi1 group (Baseline, Group 5 Bleo/BETi1 3 mg/mL): 0.1629%; Mean 2 (group mean), Weight of Whole lung (Group 3 Bleo/BETi1 0.06 mg/mL): 0.2695; Weight of Whole lung, Mean (Group 3 Bleo/BETi1 0.06 mg/mL): 0.27 grams; Weight of Whole lung, individual animals (Group 3 Bleo/BETi1 0.06 mg/mL): 0.32 grams and 0.28 grams and 0.25 grams and 0.27 grams (3×) and 0.30 grams and 0.19 grams; Probability of Survival (Group 3 Bleo/BETi1 0.06 mg/mL, Day Elapsed 0): 100%; Probability of Survival (Group 3 Bleo/BETi1 0.06 mg/mL, Day Elapsed 8): 93.75%; Probability of Survival (Group 3 Bleo/BETi1 0.06 mg/mL, Day Elapsed 9): 81.25%; Probability of Survival (Group 3 Bleo/BETi1 0.06 mg/mL, Day Elapsed 10): 75%; Probability of Survival (Group 3 Bleo/BETi1 0.06 mg/mL, Day Elapsed 12): 68.75%; Probability of Survival (Group 3 Bleo/BETi1 0.06 mg/mL, Day Elapsed 14): 62.5%; Probability of Survival (Group 3 Bleo/BETi1 0.06 mg/mL, Day Elapsed 18): 56.25%; Probability of Survival (Group 3 Bleo/BETi1 0.06 mg/mL, Day Elapsed 19): 50%; Probability of Survival (Group 3 Bleo/BETi1 0.06 mg/mL, Day Elapsed 20): 50%; Mean Diff., Weight of Whole lung, Group 2 Bleo/Veh vs. BETi1 group (Group 3 Bleo/BETi1 0.06 mg/mL): 0.01712; % change in Body Weight Week 1 Compared to Baseline, mean (Group 3 Bleo/BETi1 0.06 mg/mL): −22.10%; % change in Body Weight week 2 Compared to Baseline, mean (Group 3 Bleo/BETi1 0.06 mg/mL): −19.98%; % change in Body Weight week 3 Compared to Baseline, Mean (Group 3 Bleo/BETi1 0.06 mg/mL): −8.83%; % change in Body Weight Week 1 Compared to Baseline (Group 3 Bleo/BETi1 0.06 mg/mL): −37.04% and −20.00% and −39.32% and −11.86% and −37.37% and −3.83% and −26.78% and −31.75% and −37.30% and −38.92% and −35.61% and −25.13% and −14.61% and −18.53% and −13.95% and −12.29%; % change in Body Weight week 2 Compared to Baseline (Group 3 Bleo/BETi1 0.06 mg/mL): −39.35% and −15.35% and −47.44% and −1.27% and −1.28% and −37.16% and −39.04% and −8.22% and −19.83% and −3.26% and −7.63%; % change in Body Weight week 3 Compared to Baseline (Group 3 Bleo/BETi1 0.06 mg/mL): −37.04% and −9.77% and −0.85% and −2.13% and −5.02% and −14.22% and 0.93% and −2.54%; Mean 2 (group mean), Weight of Whole lung (Group 4 Bleo/BETi1 0.6 mg/mL): 0.2681; Weight of Whole lung, Mean (Group 4 Bleo/BETi1 0.6 mg/mL): 0.27 grams; Weight of Whole lung, individual animals (Group 4 Bleo/BETi1 0.6 mg/mL): 0.13 grams and 0.31 grams and 0.29 grams and 0.32 grams and 0.37 grams and 0.27 grams and 0.20 grams (2×) and 0.33 grams and 0.34 grams (2×) and 0.18 grams and 0.21 grams; Probability of Survival (Group 4 Bleo/BETi1 0.6 mg/mL, Day Elapsed 0): 100%; Probability of Survival (Group 4 Bleo/BETi1 0.6 mg/mL, Day Elapsed 10): 87.5%; Probability of Survival (Group 4 Bleo/BETi1 0.6 mg/mL, Day Elapsed 19): 81.3%; Probability of Survival (Group 4 Bleo/BETi1 0.6 mg/mL, Day Elapsed 20): 81.3%; Mean Diff., Weight of Whole lung, Group 2 Bleo/Veh vs. BETi1 group (Group 4 Bleo/BETi1 0.6 mg/mL): 0.01849; % change in Body Weight Week 1 Compared to Baseline, mean (Group 4 Bleo/BETi1 0.6 mg/mL): −21.76%; % change in Body Weight week 2 Compared to Baseline, mean (Group 4 Bleo/BETi1 0.6 mg/mL): −17.12%; % change in Body Weight week 3 Compared to Baseline, Mean (Group 4 Bleo/BETi1 0.6 mg/mL): −13.58%; % change in Body Weight Week 1 Compared to Baseline (Group 4 Bleo/BETi1 0.6 mg/mL): −10.00% and −30.77% and −22.17% and −31.64% and −20.93% and −27.01% and −24.89% and −31.19% and −5.26% and −14.75% and −23.22% and −25.78% and −4.72% and −10.36% and −31.41% and −8.41%; % change in Body Weight week 2 Compared to Baseline (Group 4 Bleo/BETi1 0.6 mg/mL): −8.00% and −33.52% and −16.04% and −27.44% and −32.70% and −21.78% and 0.96% and −18.89% and −16.11% and −23.11% and −0.47% and −0.90% and −39.27% and −2.34%; % change in Body Weight week 3 Compared to Baseline (Group 4 Bleo/BETi1 0.6 mg/mL): −7.50% and −34.62% and −7.55% and −27.91% and −34.12% and −12.89% and 2.39% and −6.45% and −14.69% and −19.56% and −3.30% and −9.91% and −0.47%; Mean 2 (group mean), Weight of Whole lung (Group 5 Bleo/BETi1 3 mg/mL): 0.2847; Weight of Whole lung, Mean (Group 5 Bleo/BETi1 3 mg/mL): 0.28 grams; Weight of Whole lung, individual animals (Group 5 Bleo/BETi1 3 mg/mL): 0.31 grams (2×) and 0.33 grams (2×) and 0.30 grams (2×) and 0.23 grams and 0.27 grams and 0.29 grams and 0.34 grams and 0.28 grams and 0.21 grams and 0.22 grams; Probability of Survival (Group 5 Bleo/BETi1 3 mg/mL, Day Elapsed 0): 100%; Probability of Survival (Group 5 Bleo/BETi1 3 mg/mL, Day Elapsed 12): 88.24%; Probability of Survival (Group 5 Bleo/BETi1 3 mg/mL, Day Elapsed 19): 76.5%; Probability of Survival (Group 5 Bleo/BETi1 3 mg/mL, Day Elapsed 20): 76.5%; Mean Diff., Weight of Whole lung, Group 2 Bleo/Veh vs. BETi1 group (Group 5 Bleo/BETi1 3 mg/mL): 0.001901; % change in Body Weight Week 1 Compared to Baseline, mean (Group 5 Bleo/BETi1 3 mg/mL): −19.36%; % change in Body Weight week 2 Compared to Baseline, mean (Group 5 Bleo/BETi1 3 mg/mL): −20.64%; % change in Body Weight week 3 Compared to Baseline, Mean (Group 5 Bleo/BETi1 3 mg/mL): −16.74%; % change in Body Weight Week 1 Compared to Baseline (Group 5 Bleo/BETi1 3 mg/mL): −26.87% and −23.22% and −36.71% and −15.25% and −13.81% and −12.78% and −17.30% and −34.80% and −28.32% and −27.55% and −24.87% and −34.38% and −26.99% and −11.63% and −10.16% and −15.64% and −21.86%; % change in Body Weight week 2 Compared to Baseline (Group 5 Bleo/BETi1 3 mg/mL): −11.45% and −36.97% and −40.10% and −20.18% and 1.43% and −7.05% and −22.16% and −38.24% and −34.07% and −20.81% and −42.92% and −8.37% and −1.07% and −7.11% and −20.47%; % change in Body Weight week 3 Compared to Baseline (Group 5 Bleo/BETi1 3 mg/mL): −5.73% and −37.44% and −21.52% and 1.90% and −7.05% and −24.32% and −46.08% and −37.17% and −17.26% and −3.26% and 2.67% and −4.27% and −18.14%; Mean 2 (group mean), % Change Body Weight [1]: −25.27%; Mean Diff., % Change Body Weight, Group 2 Bleo/Veh vs. BETi1 group [1]: 3.162%; Predicted (LS) mean diff., % Change Body Weight, Group 2 Bleo/Veh vs. BETi1 group [1]: −0.2812%; Mean 2 (group mean), % Change Body Weight [2]: −20.16%; Mean Diff., % Change Body Weight, Group 2 Bleo/Veh vs. BETi1 group [2]: −1.950%; Predicted (LS) mean diff., % Change Body Weight, Group 2 Bleo/Veh vs. BETi1 group [2]: 0.1375%; Mean 2 (group mean), % Change Body Weight [3]: −22.48%; Mean Diff., % Change Body Weight, Group 2 Bleo/Veh vs. BETi1 group [3]: 0.3723%; Predicted (LS) mean diff., % Change Body Weight, Group 2 Bleo/Veh vs. BETi1 group [3]: −0.2048%; Mean 2 (group mean), % Change Body Weight [4]: −19.98%; Mean Diff., % Change Body Weight, Group 2 Bleo/Veh vs. BETi1 group [4]: 1.135%; Predicted (LS) mean diff., % Change Body Weight, Group 2 Bleo/Veh vs. BETi1 group [4]: 0.3375%; Mean 2 (group mean), % Change Body Weight [5]: −17.12%; Mean Diff., % Change Body Weight, Group 2 Bleo/Veh vs. BETi1 group [5]: −1.732%; Predicted (LS) mean diff., % Change Body Weight, Group 2 Bleo/Veh vs. BETi1 group [5]: −0.3438%; Mean 2 (group mean), % Change Body Weight [6]: −20.64%; Mean Diff., % Change Body Weight, Group 2 Bleo/Veh vs. BETi1 group [6]: 1.788%; Predicted (LS) mean diff., % Change Body Weight, Group 2 Bleo/Veh vs. BETi1 group [6]: −0.05257%; Mean 2 (group mean), % Change Body Weight [7]: −8.830%; Mean Diff., % Change Body Weight, Group 2 Bleo/Veh vs. BETi1 group [7]: −4.313%; Predicted (LS) mean diff., % Change Body Weight, Group 2 Bleo/Veh vs. BETi1 group [7]: −2.409%; Mean 2 (group mean), % Change Body Weight [8]: −13.58%; Mean Diff., % Change Body Weight, Group 2 Bleo/Veh vs. BETi1 group [8]: 0.4395%; Predicted (LS) mean diff., % Change Body Weight, Group 2 Bleo/Veh vs. BETi1 group [8]: −0.1629%; Mean 2 (group mean), % Change Body Weight [9]: −16.74%; Mean Diff., % Change Body Weight, Group 2 Bleo/Veh vs. BETi1 group [9]: 3.600%; Predicted (LS) mean diff., % Change Body Weight, Group 2 Bleo/Veh vs. BETi1 group [9]: 0.6601%
